In patent US20230149409A1, “TREATMENT OF HUMAN PAPILLOMAVIRUS-ASSOCIATED CANCERS BY PD-L1 INHIBITORS” (priority 2021, published 2023):
Marks after values point to notes of the source that are not given here.

Assays:
[1] = test system: advanced solid tumors (HPV-positive tumors); assay: Phase 1 open-label clinical trial of Compound 1; type: in vivo, human
Description: This study is a Phase 1, open-label, dose-finding study for Compound 1 (see Table 1, supra). Eligible participants enrolled will receive Compound 1 as an oral tablet (50-mg, 100-mg, or 400-mg) during 21-day or 28-day cycles until disease progression, unacceptable toxicity, death, withdrawal of consent, or any other reason. Continuous treatment administration may be once daily (QD) or twice daily (BID).
Following a dose escalation study to identify a pharmacological active dose, this trial will enroll up to 60 participants with HPV-positive tumors at 1 or more pharmacologically active dose (PAD) doses to further evaluate safety, efficacy, PK, and pharmacodynamic effects. A maximum of 20 participants may be enrolled per dose level. Participants must have HPV-positive tumors as determined by a local laboratory using p16 IHC, polymerase chain reaction methods, or other locally-available method to detect HPV.
Participants are eligible to be included in the study only if all of the following criteria apply: • 1. Male and female participants must be ≥ 18 years of age at the time of signing the ICF. • 2. Ability to comprehend and willingness to sign an ICF. • 3. Must be willing and able to conform to and comply with all Protocol requirements, including all scheduled visits, Protocol procedures, and the ability to swallow oral medication. • 4. Histologically confirmed advanced solid tumors with measurable lesions (per RECIST v1.1 or RANO for primary brain tumors) that are considered nonamenable to surgery or other curative treatments or procedures. […] Participants must have disease progression after treatment with available therapies that are known to confer clinical benefit or who are intolerant to or ineligible for standard treatment. • 6. Willingness to undergo a tumor biopsy to obtain tumor tissue. • 7. Eastern Cooperative Oncology Group performance status score of 0 or 1. • 8. Life expectancy > 12 weeks. • 9. Willingness to avoid pregnancy or fathering children. • 10. For the cohort participating in the extension to participants with HPV-positive solid tumors: any HPV-positive solid tumor which has received prior standard therapy.
Adult patients (≥18 years) with advanced solid tumors were enrolled into this open-label study. Patients had disease progression after standard available therapy, or were intolerant of, or ineligible for standard treatment. Measureable disease was required. A modified 3+3 dose escalation design was employed, followed by dose expansions. The primary endpoints were safety and tolerability of Compound 1, identification of a pharmacologically active dose and/or maximum tolerated dose, and confirmation of the recommended Phase 2 dose. Secondary endpoints included PK, pharmacodynamics, and efficacy as assessed by investigator-determined objective response and disease control rates (complete response (CR), partial response (PR), or stable disease (SD)).
Patients that were confirmed to have HPV+ or confirmed to be HPV- are indicated below. Patients of unknown HPV status are also indicated.

[2] = molecular target: T1, PD-⅟PD-L1 (recombinant human PD-L1 protein and human PD-1 protein) (Homo sapiens, UniProt Q9NZQ7); assay: Homogeneous Time-Resolved Fluorescence (HTRF) PD-1/PD-L1 binding assay; conditions: 3 nM PD1, 10 nM PD-L1, 25° C., PBS pH 7.4
T1 construct: Recombinant human PD-L1 protein (19-238) with a His-tag at the C-terminus; purchased AcroBiosystems PD1-H5229 (PD-L1); PD1-H5257 (PD-1)

[3] = Anal, Confirmed HPV+, 400 mg BID
[4] = Anal, Total (all HPV status), 400 mg BID
[5] = Anal, Unknown HPV status, 400 mg BID
[6] = Cervical, Confirmed HPV+, 400 mg BID
[7] = Cervical, Total (all HPV status), 400 mg BID
[8] = Total of tumor types, Confirmed HPV+
[9] = Total of tumor types, Total (all HPV status)
[10] = Total of tumor types, Unknown HPV status

T1 sequence (Q9NZQ7 19-238): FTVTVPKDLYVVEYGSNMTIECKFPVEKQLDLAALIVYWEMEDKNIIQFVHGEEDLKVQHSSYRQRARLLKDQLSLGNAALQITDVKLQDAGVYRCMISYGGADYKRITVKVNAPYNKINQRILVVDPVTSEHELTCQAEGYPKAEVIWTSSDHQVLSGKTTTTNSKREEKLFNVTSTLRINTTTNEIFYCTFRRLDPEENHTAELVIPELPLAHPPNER

Cc1c(Nc2nccc3cc(CN4CC[C@@H](O)C4)cnc23)cccc1-c1cccc(-c2nc3cc(CN4CC[C@@H](C(=O)O)C4)cc(C#N)c3o2)c1C [Compound 1, (R)-1-((7-cyano-2-(3′-(3-(((R)-3-hydroxypyrrolidin-1-yl)methyl)-1,7-naphthyridin-8-ylamino)-2,2′-dimethylbiphenyl-3-yl)benzo[d]oxazol-5-yl)methyl)pyrrolidine-3-carboxylic acid]
1^a: number of patients with PR/CR ([1]; Anal, Confirmed HPV+, patient received 800 mg BID) | number of patients with PD ([1]; HNSCC, Confirmed HPV-, patient received 800 mg BID)
about 28.6%: ORR based on PR or CR ([1]; 14 evaluable patients, 400 mg BID or 800 mg BID, factoring in responses in patients with unknown HPV status)
2: number of patients with SD [1, 4] | number of patients with PD [1, 5] | number of patients with PD [1, 6] | number of patients with PD [1, 7] | number of patients with PR/CR [1, 8] | number of patients with PD [1, 10] | number of patients with PR/CR [1, 10]
6: number of patients with PD [1, 9]
1: number of patients with PD [1, 3] | number of patients with SD [1, 3] | number of patients with SD [1, 5] | number of patients with SD [1, 6] | number of patients with SD [1, 7] | number of patients with PD ([1]; HNSCC, Total (all HPV status)) | number of patients with SD ([1]; Penile, Confirmed HPV+, 400 mg BID) | number of patients with SD ([1]; Penile, Total (all HPV status), 400 mg BID) | number of patients with PD ([1]; Total of tumor types, Confirmed HPV-) | number of patients with SD [1, 10] | number of patients with PR/CR ([1]; Vaginal, Confirmed HPV+, 400 mg BID) | number of patients with PR/CR ([1]; Vaginal, Total (all HPV status), 400 mg BID)
4: number of patients with PR/CR [1, 9] | number of patients with SD [1, 9]
2^b: number of patients with PR/CR ([1]; Anal, Unknown HPV status, 1 out of 2 patients received 800 mg BID)
3: number of patients with PD [1, 4] | number of patients with PR/CR ([1]; Anal, Total (all HPV status), 400 or 800 mg BID) | number of patients with PD [1, 8] | number of patients with SD [1, 8]

Cn1c(C(=O)Nc2cccc(-c3cccc(NC(=O)c4nc5c(n4C)CCN(CCC46CCC(C(=O)O)(CC4)C6)C5)c3Cl)c2Cl)nc2c1CCN(CCC13CCC(C(=O)O)(CC1)C3)C2 [Compound 30, 4,4′-(((((2,2′-dichloro-[1,1′-bipheiryl]-3,3′-diyl)bis(azanediyl))bis(carbonyl))bis(1-methyl-1,4,6,7-tetrahydro-5H-imidazo[4,5-c]pyridine-2,5-diyl))bis(ethane-2,1-diyl))bis(bicyclo[2.2.1]heptane-1-carboxylic acid)]
< 10 nM: IC50 [2]
